Data from publication PMC4547397, “A Caged Ret Kinase Inhibitor and its Effect on Motoneuron Development in Zebrafish Embryos” (Scientific Reports, 2015).
Entries after “also recorded” stand apart in the source; their conditions may differ. Like-named read-outs stand apart in the source and are kept apart here.

Assays:
[1] = Solubility in aqueous media / buffer; type: physicochemical
8505C cells = tested on: 8505C cells; set-up: method as in PMID 25409876; settings: cited from earlier work
RET = tested on: RET; set-up: method as in PMID 22559926; settings: cited from earlier work
C643 cells = tested on: C643 cells; set-up: method as in PMID 25409876; settings: cited from earlier work
Human recombinant RET = molecular target: T1, Human recombinant RET (Homo sapiens, UniProt P07949); test: In vitro (cell-free) RET kinase incubation, luminescent ADP detection; type: biochemical; settings: for IC50: read-out: IC50, RET-induced ATP turnover; for RET kinase activity: 1.6 μM
T1 construct: purchased Promega; host or cells: Sf9 insect cells
T1 sequence (P07949 29-1114): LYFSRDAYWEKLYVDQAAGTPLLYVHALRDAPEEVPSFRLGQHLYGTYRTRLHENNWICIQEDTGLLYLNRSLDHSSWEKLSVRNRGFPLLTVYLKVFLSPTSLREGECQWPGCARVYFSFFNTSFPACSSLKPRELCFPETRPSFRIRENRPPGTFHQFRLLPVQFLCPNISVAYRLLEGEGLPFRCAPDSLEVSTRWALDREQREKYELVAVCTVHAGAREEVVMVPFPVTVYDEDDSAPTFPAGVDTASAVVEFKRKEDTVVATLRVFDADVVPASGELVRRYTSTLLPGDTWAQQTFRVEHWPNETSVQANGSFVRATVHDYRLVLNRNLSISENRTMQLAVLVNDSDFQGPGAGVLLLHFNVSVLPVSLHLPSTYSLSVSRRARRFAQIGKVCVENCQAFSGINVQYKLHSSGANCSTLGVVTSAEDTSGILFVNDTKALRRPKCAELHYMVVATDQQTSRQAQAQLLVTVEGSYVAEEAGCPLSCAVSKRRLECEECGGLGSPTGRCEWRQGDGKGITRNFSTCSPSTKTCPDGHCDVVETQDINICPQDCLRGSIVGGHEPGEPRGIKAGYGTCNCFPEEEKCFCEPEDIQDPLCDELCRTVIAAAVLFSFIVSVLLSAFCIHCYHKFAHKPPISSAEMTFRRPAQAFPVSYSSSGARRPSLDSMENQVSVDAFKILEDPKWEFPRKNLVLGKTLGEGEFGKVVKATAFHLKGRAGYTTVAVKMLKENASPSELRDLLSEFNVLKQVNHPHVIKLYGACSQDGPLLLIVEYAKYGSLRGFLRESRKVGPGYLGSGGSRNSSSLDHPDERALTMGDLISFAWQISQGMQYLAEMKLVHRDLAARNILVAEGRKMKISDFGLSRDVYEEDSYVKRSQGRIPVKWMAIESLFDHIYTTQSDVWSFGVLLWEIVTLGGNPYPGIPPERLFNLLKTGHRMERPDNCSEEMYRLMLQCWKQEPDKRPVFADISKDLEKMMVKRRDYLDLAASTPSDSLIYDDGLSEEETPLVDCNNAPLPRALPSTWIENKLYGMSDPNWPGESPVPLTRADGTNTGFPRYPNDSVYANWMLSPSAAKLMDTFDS
Method: With the caged compound in hand, the ability to photocontrol the inhibition of RET kinase was assessed. For this purpose, an in vitro assay with purified RET kinase was used to measure ADP production during substrate phosphorylation. Compound 6 was added to two parallel preparations comprising RET kinase and substrate. One preparation was exposed to light (365 nm, 15 min), while the other was kept in the dark.
After adding ATP and incubating at room temperature for 30 min, the relative ATP turnover was assessed. […] For example; irradiating an administered dose of 1.6 μM 6, would modulate the RET kinase activity from 90% to 10%.
Human recombinant RET expressed in Sf9 insect cells (Specific Activity: 220 nmol^−1min^−1mg^−1), substrate (IGFlRtide), and ATP were purchased in an assay ready kit from Promega[37] (Promega Corporation, Madison WI 53711 USA) and used as received. Incubations were performed in 40 mM Tris buffer (pH 7.4, 1 vol% DMSO) supplemented with 50 μM DTT and 20 mM MgCl2 in a white flat-bottom 96-well plate. Incubation volume was 25 μL. Brief procedure; Kinase (0.8 μg/mL), substrate (40 μg/mL), ATP (10 μM) and inhibitor were combined and incubated for 30 min at room temperature in the dark, with shaking. After the kinase reaction, two detection reagents were added in a stepwise manner. The first reagent depleted the remaining (unreacted) ATP in the reaction mix. The second reagent converted the ADP produced in the kinase reaction to ATP and generated a luminescence signal using a luciferase/luciferin reaction. The light generated is proportional to the amount ADP present and, consequently, to the kinase activity. Luminescence was recorded on a BMG Labtech Fluostar Omega luminometer. All incubations were done in duplicates.
2. Fitting of dose-response data
Positive and negative control experiments with and without light exposure (15 min, 365 nm) were run in parallel to the inhibitor incubations. The positive control was identical to the inhibitor experiment but with buffer additions instead of ATP and Neurturin for the cell-free and live-cell incubation, respectively. The negative control was identical to the inhibitor experiment but with inhibitor diluent (DMSO) addition instead of inhibitor. The intensity reading from the positive control was subtracted from the corresponding value from the inhibitor incubation. This was followed by normalization to the negative control reading. The resulting luminescence intensities (I) at the applied inhibitor concentrations (C) were fitted to […]
A global, error-weighted (instrumental) fit was performed by making the top- (A2) and bottom (A1) asymptotes shared parameters for the included data sets. […]
140/2013, and followed the guidelines of the Swedish National Board for Laboratory

[2] = tested on: cell lines used (TPC1, 8505C, C643, MCF7); set-up: method as in PMID 25409876; settings: any of the cell lines used; cited from earlier work
[3] = tested on: zebrafish embryos tg(olig2:dsRed) (ret); test: Motoneuron development in zebrafish embryos, confocal imaging at 2 dpf; type: in vivo, Danio rerio
Method: In the light of this, we chose to investigate the decaging of 6 in the transgenic zebrafish line tg(olig2:dsRed)[33], and any effect this may have on the motoneuron development. The choice of zebrafish line is motivated by the labeling of ventral spinal cord precursor cells that produce motoneurons and oligodendrocytes, facilitating the assessment of altered motoneuron phenotypes. Transgenic zebrafish embryos were incubated in 10 μM and 50 μM solutions of 6 at 3 hours post fertilization (hpf) for 11 h. We opted for decaging at 14 hpf since primary motoneurons start to sprout growth cones at 18 hpf[36]. We hypothesized that blocking ret signalling at this time point would primarily affect axonal extension and not formation of motoneurons. After washing with fresh medium the embryos were irradiated for 15 min (365 nm). The embryos were left to develop until 2 days post fertilization (dpf) when their spinal cords were scanned with confocal imaging. […] All experimental procedures were carried out in compliance with relevant guidelines and regulations of the Swedish National Board for Laboratory Animals. The protocols were also approved by the medical ethics committee of University of Gothenburg. Zebrafish (Danio rerio) embryos of strain tg(olig2:dsRed)[32] were kept at the Institute of Neuroscience and Physiology, University of Gothenburg. Fertilized eggs were collected and kept in petri dishes containing embryo medium (EM; 5.03 mM NaCl, 0.17 mM KCl, 0.33 mM CaCl2·2H2O, 0.33 mM MgCl2·6H2O), in darkness, in an incubator at 28.5 °C. Eggs were incubated in either 6 or 1% DMSO from 3 hours post-fertilization (hpf) and then dechorinated at 9 hpf to allow for better compound uptake. After 11 hours of incubation, 14 hpf embryos were washed three times with EM and moved to clean petri dishes containing 1-phenyl 2-thiourea (PTU, 0,003%, Sigma) and diluted in EM to prevent pigmentation. Embryos were irradiated for 15 min (365 nm) and then kept in the incubator until time of confocal imaging. A second set of animals were incubated in 6 from 14 hpf to 24 hpf, after which animals were washed and illuminated in the same way as the first group. Prior to imaging at 2 days post-fertilization (dpf), the embryos were anesthetized using 0.02% tricaine methanesulfonate (MS-222) diluted in EM and embedded in low-melting agarose. The imaging was performed on a ZEISS LSM710 confocal microscope at the Centre for Cellular Imaging at the Sahlgrenska Academy. Stacks of labeled spinal cord neurons were collected using a 561 nm laser. Maximal intensity pictures of spinal cord hemisegments and axonal phenotypes were analyzed using ImageJ (U. S. National Institutes of Health, Bethesda, Maryland, USA) according to Abramsson et al. 2013[38].

MCF7 cells = tested on: MCF7 cells; set-up: method as in PMID 25409876; settings: cited from earlier work
[4] = tested on: RET/PTC1 expressing TPC1 cells; set-up: method as in PMID 25409876; settings: cited from earlier work
RET kinase (c-RET-GFRα2) = RET kinase (c-RET-GFRα2) (Homo sapiens, UniProt P07949); test: PathHunter express c-RET-GFRα2 functional live-cell assay (neurturin stimulated); type: cell-based
Sequence of RET kinase (c-RET-GFRα2) (P07949 29-1114): as above
Method: The photoactivation of 6 was also tested in a RET functional whole cell assay which utilizes β-galactosidase to produce a luminescent readout[24][25][26] (see Methods section for assay details). Compound 6 was added to live cells expressing RET kinase in two identical preparations, followed by 3 h preincubation at 37 °C. At this point, one preparation was exposed to light (365 nm, 15 min), while the other was kept in the dark. Again, 15 min is clearly not sufficient to complete the decaging (see above). Addition of the growth factor neurturin (required to activate the RET kinase) and incubation for 3 h at 22 °C allowed for activity-correlating signal induction using the supplemented detection reagents. […] To again exclude distortive effects of light on the cells, incubations without inhibitor were exposed to light.
PathHunter express c-RET-GFRα2 functional assay and recombinant human neurturin were purchased from DiscoveRx (DiscoveRx Corporation, Fremont CA 94538 USA) and used according to instructions. […] Incubations were performed in the provided assay buffer (1 vol% DMSO) in a white flat/clear-bottom 96-well plate. Incubation volume was 110 μL. Brief procedure; Cells were thawed and diluted to ca. 100 000 cells/mL, followed by plating and acclimatization in 37 °C, 5% CO2, humidified, environment for 48 h. Thereafter, the inhibitor was added and the plate was returned to 37 °C for 3 h. The cells were then stimulated with the GDNF-family growth factor neurturin (applied concentration: 15 ng/mL = EC80) and incubated 3 h at 22 °C in the dark. An activity-correlating luminescence signal was induced using the detection reagent provided in the kit according to the recommended protocol. Luminescence was recorded on a BMG Labtech Fluostar Omega luminometer. All incubations were done in duplicates.

[5] = tested on: GDNF-induced RET phosphorylation of ERK1/2; set-up: method as in PMID 22559926; settings: cited from earlier work
[6] = Thermal stability in aqueous buffer by UV/vis absorption; type: physicochemical; settings: 48 h, 37 °C, 10 mM phosphate buffer pH 7.0, 1 vol% DMSO
Method: (§1) Steady state absorption measurements (for thermal stability assessment of 6, see Fig. S3) were carried out on a Cary Bio 50 UV/vis spectrometer equipped with a Varian PCB 1500 Water Peltier System thermostat for temperature control. Sample volume was 3.0 mL. […] Irradiation in the assays was accomplished by placing the lamp directly on top of the sample plates/dishes. It should be noted that the exact light conditions in the assays may differ slightly depending on the type of plates/dishes used (see Methods sections below for plate specifications).
5.3 Thermal stability of 6 in 10 mM phosphate buffer, pH 7.
Figure S3. UV/vis absorption spectra of 6 in 10 mM phosphate buffer (pH 7.0, 1 vol% DMSO) at
t = 0 (solid black line), and after t = 48 h in 37 °C (dashed red line). Inset: Absorption at λ = 321 nm as
(§2) (1 picture or pasted object on this page, not shown here)

[7] = Light-induced decaging (365 nm) monitored by HPLC; type: physicochemical
Method: Indeed, this compound was soluble in aqueous buffer (1 vol% DMSO) up to 100 μM. Photoinduced cleavage of 6 was readily achieved with 365 nm light, as monitored by HPLC.
as §1
Figure S1. Light-induced decaging of 6. A Tris buffer solution (1vol% DMSO) containing 100 µM 6 was successively subjected to t = 0, 3, 6, 9, 12, 15, 30, 60, and 90 min of 365 nm light. After each irradiation period, an aliquot was drawn and analyzed using HPLC with UV detection. The integrated areas for the chromatogram peaks associated with 1 (hollow squares) and 6 (solid circles) were fitted globally (shared time constant) to a first order exponential (solid line), yielding a time constant of τ = 9.6 min for the decaging of 6. It should be noted that the individually extracted time constants for […]
from the globally fitted value.
as §2

[8] = 100 µM 6 in Tris buffer 1 vol% DMSO

In the case of `COc1cc(COC(=O)Nc2ncnc3c2c(C#Cc2ccccc2)nn3CCO)c([N+](=O)[O-])cc1OC` [compound 3], the “solubility in aqueous media” value [1] is reported as “too low to be practical for biological assays”.

In the case of `CC(C)n1nc(C#Cc2ccccc2)c2c(N)ncnc21` [compound 1], the “MAPK signalling and proliferation” value (8505C cells) is listed as “not”, the “in vitro activity against RET” value (RET) is listed as “low nM range” and the “selectivity profile toward RET” value (RET) is listed as “partial inhibition of only six other tyrosine kinases”. The “MAPK signalling and proliferation” value (C643 cells) was “not”, the IC50 (Human recombinant RET; free inhibitor, no irradiation, 10 μM ATP, 30 min room temperature) was 0.072 µM and the cytotoxicity [2] was “No cytotoxicity was observed”. The motoneuron axonal phenotype ([3]; 10 μM during development) was “phenotype was also observed”, the motoneuron axonal phenotype ([3]; 50 μM for 90 min at 6 hpf) was “phenotype was also observed” and the “PI3K/Akt and MAPK signalling and estrogen receptor α (ERα) phosphorylation” value (MCF7 cells) was “inhibited”. For the same compound, the proliferation (MCF7 cells) was “inhibit proliferation to a similar degree as tamoxifen”, the “MAPK signalling and proliferation” value [4] was “inhibited” and the IC50 (RET kinase (c-RET-GFRα2); free inhibitor, no irradiation, 3 h preincubation 37 °C) was 0.47 µM. For the same compound, the “effect on GDNF-induced RET phosphorylation of ERK1/2” value [5] was “inhibitory effect”.

With `COc1cc(COC(=O)Nc2ncnc3c2c(C#Cc2ccccc2)nn3C(C)C)c([N+](=O)[O-])cc1OC` [compound 2] the “solubility in aqueous media” value [1] was “insufficiently soluble”.

For `COc1cc(COC(=O)Nc2ncnc3c2c(C#Cc2ccccc2)nn3C(C)C)c([N+](=O)[O-])cc1OCC(=O)O` [compound 6, 2-(4-((((1-isopropyl-3-(phenylethynyl)-1H-pyrazolo[3,4-d]pyrimidin-4-yl)carbamoyl)oxy)methyl)-2-methoxy-5-nitrophenoxy)acetic acid], the solubility ([1]; kinetic from dmso stock, aqueous buffer, 1 vol% DMSO) was at most 100 µM, the “thermal stability (absorption spectrum)” value [6] was “no changes in the absorption spectrum were detected; also recorded: No signs of degradation” and the “exposure time required for complete (>99%) decaging” value [7] was “at least 45 minutes”. The “time constant τ, consumption of 6 (individual fit)” value [7, 8] was 8.7 min, the “time constant τ, liberation of 1 (individual fit)” value [7, 8] was 13.1 min and the “time constant τ of decaging, global fit (first order)” value ([7]; 1.5 mW/cm^2, 100 µM in Tris buffer 1 vol% DMSO) was 9.6 min. For the same compound, the RET kinase activity (Human recombinant RET; after irradiation) was 10%, the RET kinase activity (Human recombinant RET; before irradiation) was 90% and the “increase of inhibitory capability upon light exposure” value (Human recombinant RET; irradiated (365 nm, 15 min) vs non-irradiated) was 12 fold. The IC50 (Human recombinant RET; non-irradiated (kept in the dark)) was 6.8 µM, the motoneuron axonal phenotype ([3]; 10 μM, irradiated 15 min at 14 hpf) was “virtually no effect” and the motoneuron axonal phenotype ([3]; 50 μM from 3 hpf for 11 h, irradiated 15 min 365 nm at 14 hpf, imaged 2 dpf) was “motoneurons with shortened and malformed axons”. For the same compound, the motoneuron axonal phenotype ([3]; irradiated at 24 hpf after 10 h of incubation and wash) was “similar, but less severe, axonal phenotypes”, the motoneuron axonal phenotype ([3]; non-irradiated embryos (50 μM)) was “did not show any phenotypic anomalies” and the IC50 (RET kinase (c-RET-GFRα2); irradiated (365 nm, 15 min)) was 8.7 µM. For the same compound, the “IC50, live-cell RET activity” value (RET kinase (c-RET-GFRα2); non-irradiated) was “no IC50 value could be obtained” and the “partial inhibition of RET activity in live cells” value (RET kinase (c-RET-GFRα2); non-irradiated, at concentrations higher than 6 μM) was “ca. 40%”.
